Measurements taken from ChEMBL document CHEMBL3739339, “Discovery of a series of 2-(pyridinyl)pyrimidines as potent antagonists of GPR40” (Medchemcomm, 2015).
pIC50: −log10 of the molar value. In brackets after ≈: the same amount, converted by molar mass. Activity calls are given as the source filed them. The calls are words filed in the database; no cut-off is given here.

Experiments:
[1] = species on record: Rattus norvegicus; experiment: Unbound clearance in rat; assay type: ADME, organism-based; conditions: in vivo
[2] = Solubility of compound; assay type: physicochemical
[3] = Clearance in rat; assay type: ADME, organism-based; conditions: in vivo
[4] = Fraction unbound in rat plasma; assay type: ADME, cell-free
[5] = Volume of distribution at steady state in rat; assay type: ADME, organism-based; conditions: in vivo, read-out: Vdss
[6] = target: Free fatty acid receptor 1 (Homo sapiens, UniProt O14842); experiment: Antagonist activity against human GPR40 expressed in HEK293s FLPIN cells assessed as elaidic acid stimulated IP1 release after 2 hrs by TR-FRET analysis; assay type: functional, cell-based
Chain of Free fatty acid receptor 1 (Homo sapiens, UniProt O14842) (O14842 whole entry): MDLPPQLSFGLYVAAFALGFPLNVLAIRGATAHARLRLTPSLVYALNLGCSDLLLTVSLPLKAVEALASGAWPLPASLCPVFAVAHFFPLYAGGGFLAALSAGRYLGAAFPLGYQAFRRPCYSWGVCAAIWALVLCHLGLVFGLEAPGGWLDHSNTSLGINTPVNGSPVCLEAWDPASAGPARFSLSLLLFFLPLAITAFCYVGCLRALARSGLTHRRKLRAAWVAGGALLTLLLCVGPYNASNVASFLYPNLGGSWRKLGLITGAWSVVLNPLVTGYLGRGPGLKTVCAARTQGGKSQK

[7] = Fraction unbound in human plasma; assay type: ADME, cell-free
[8] = Oral absorption in rat; assay type: ADME, organism-based; conditions: in vivo, read-out: Fabs
[9] = system: Hepatocyte; experiment: Intrinsic clearance in rat hepatocytes measured per 10^6 cells; assay type: ADME, cell-based
[10] = Oral bioavailability in rat; assay type: ADME, organism-based; conditions: in vivo
[11] = Lipophilicity, log D of the compound at pH 7.4; assay type: physicochemical; conditions: buffer
[12] = target: Free fatty acid receptor 1 (Rattus norvegicus, UniProt Q8K3T4); experiment: Antagonist activity against rat GPR40
Chain of Free fatty acid receptor 1 (Rattus norvegicus, UniProt Q8K3T4) (Q8K3T4 whole entry): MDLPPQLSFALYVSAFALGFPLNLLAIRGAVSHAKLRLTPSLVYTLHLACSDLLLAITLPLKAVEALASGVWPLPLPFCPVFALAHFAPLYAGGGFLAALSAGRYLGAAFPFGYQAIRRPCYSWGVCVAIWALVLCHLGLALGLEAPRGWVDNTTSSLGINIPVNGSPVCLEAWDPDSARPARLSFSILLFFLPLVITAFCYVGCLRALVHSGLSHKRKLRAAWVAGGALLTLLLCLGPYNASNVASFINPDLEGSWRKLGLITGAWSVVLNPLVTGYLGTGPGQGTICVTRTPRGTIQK

[13] = system: Liver microsome; experiment: Intrinsic clearance in human liver microsomes […]; assay type: ADME
[14] = system: Rattus norvegicus; experiment: Inhibition of NEFA-driven plasma insulin level in male Zucker rat pretreated with beta3-agonist for 30 mins at 80 mg/kg measured 4 hrs post dosing by ELISA; assay type: functional
[15] = system: Rattus norvegicus; experiment: Effect on plasma NEFA level in male Zucker rat at 80 mg/kg measured 4 hrs by ELISA assay relative to vehicle control; assay type: ADME, organism-based; conditions: in vivo
[16] = target: Free fatty acid receptor 1 (Mus musculus) (UniProt Q76JU9); experiment: Antagonist activity against mouse GPR40
Chain of Free fatty acid receptor 1 (Mus musculus) (Q76JU9 whole entry): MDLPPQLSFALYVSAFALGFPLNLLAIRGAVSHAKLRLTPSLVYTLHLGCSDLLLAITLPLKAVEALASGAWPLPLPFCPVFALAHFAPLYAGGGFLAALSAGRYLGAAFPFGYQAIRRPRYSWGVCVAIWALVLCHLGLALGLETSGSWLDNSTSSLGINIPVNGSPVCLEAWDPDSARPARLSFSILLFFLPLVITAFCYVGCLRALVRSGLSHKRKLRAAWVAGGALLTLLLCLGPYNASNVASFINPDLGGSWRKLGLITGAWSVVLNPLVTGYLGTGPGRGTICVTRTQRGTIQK

[17] = system: Rattus norvegicus; experiment: Effect on plasma insulin level in male Zucker rat at 80 mg/kg measured after 4 hrs by ELISA relative to vehicle control; assay type: ADME, organism-based; conditions: in vivo
[18] = target: T1, Free fatty acid receptor 2 (Homo sapiens) (UniProt O15552); experiment: Antagonist activity at GPR43 (unkown origin)
T1 sequence (whole entry): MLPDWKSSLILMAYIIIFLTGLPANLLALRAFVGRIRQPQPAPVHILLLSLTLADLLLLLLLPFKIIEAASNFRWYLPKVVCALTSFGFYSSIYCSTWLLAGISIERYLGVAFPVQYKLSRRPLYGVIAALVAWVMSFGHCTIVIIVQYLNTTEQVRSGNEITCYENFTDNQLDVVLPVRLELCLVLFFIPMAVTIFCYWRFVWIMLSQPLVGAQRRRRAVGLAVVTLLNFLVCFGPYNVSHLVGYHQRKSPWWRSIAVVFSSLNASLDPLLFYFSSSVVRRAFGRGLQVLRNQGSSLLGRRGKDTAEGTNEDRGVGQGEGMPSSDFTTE

| Structure (SMILES) | pIC50 [6] | logD [11] | other results |
| --- | --- | --- | --- |
| Cc1cc(COc2ccc(F)c(F)c2F)nc(-c2ccccn2)n1 | 6.60 | 3.3 | CL free [1]: 380 mL/min/kg; solubility [2]: 22 µM (≈ 7.29 µg/mL); clearance [3]: 24 mL/min/kg; fraction unbound [4]: 0.063; Vd [5]: 2.3 L/kg; fraction unbound [7]: 0.03; Fa [8]: 59%; CLint [9]: 17 µL/min/1e6 cells; bioavailability [10]: 39%; pIC50 [12]: 6.70; CLint [13]: 57 µL/min/mg |
| Cc1cc(COc2ccc(S(C)(=O)=O)cc2)nc(-c2ccccn2)n1 | < 4.40 | 1.5 |  |
| OC1CN(c2cc(COc3ccc(F)c(F)c3F)nc(-c3ccccn3)n2)C1 | 5.50 | 2.8 |  |
| Cc1cc(COc2ccc(Cl)cc2)nc(-c2ccccn2)n1 | 6.60 | 3.7 |  |
| COc1cc(COc2cccc(F)c2)nc(-c2ccccn2)n1 | 5.90 | 3.6 |  |
| Cc1cc(COc2cccc(Cl)c2)nc(-c2ccccn2)n1 | 6.40 | 3.7 |  |
| Cc1cc(COc2c(F)cc(F)cc2F)nc(-c2ccccn2)n1 | 5.90 | 3.2 |  |
| COC1(COc2cc(COc3ccc(F)c(F)c3F)nc(-c3ccccn3)n2)COC1 | 6.30 | 3.5 |  |
| CC(=O)Nc1ccc(OCc2cc(C)nc(-c3ccccn3)n2)cc1 | < 4.40 | 1.9 |  |
| Fc1ccc(OCc2cc(OCC(F)(F)F)nc(-c3ccccn3)n2)c(F)c1F | 8.10 | > 4.9 |  |
| Fc1ccc(OCc2cc(OCC3CCC3)nc(-c3ccccn3)n2)c(F)c1F | 7.90 | 4.5 |  |
| COc1ccc(OCc2cc(C)nc(-c3ccccn3)n2)cc1 | 5.10 | 2.8 |  |
| Cc1cc(COc2ccccc2C#N)nc(-c2ccccn2)n1 | 5.00 | 2.7 |  |
| Cc1cc(COc2cccc(F)c2)nc(-c2ccccn2)n1 | 6.10 | 3.1 |  |
| Cc1cc(COc2c(F)ccc(F)c2F)nc(-c2ccccn2)n1 | 5.80 | 3.1 |  |
| Cc1cc(COc2cccc(S(C)(=O)=O)c2)nc(-c2ccccn2)n1 | < 4.40 | 1.7 |  |
| CC(C)Nc1cc(COc2cccc(F)c2)nc(-c2ccccn2)n1 | 7.00 | 4.3 |  |
| COc1ccccc1OCc1cc(C)nc(-c2ccccn2)n1 | 5.70 | 2.5 |  |
| Cc1cc(N/N=C/c2ccccc2)nc(-c2ccccc2)n1 | 6.60 | 4.3 | solubility [2]: < 0.3 µM |
| Cc1cc(COc2ccccc2Cl)nc(-c2ccccn2)n1 | 6.50 | 3.4 |  |
| Cc1cc(COc2ccccc2)nc(-c2ccccn2)n1 | 6.10 | 3.4 |  |
| CC1(COc2cc(COc3ccc(F)c(F)c3F)nc(-c3ccccn3)n2)COC1 | 7.10 | 4 |  |
| Cc1cc(COc2cc(F)c(F)c(F)c2)nc(-c2ccccn2)n1 | 6.40 | 3.4 |  |
| Cc1cc(COc2ccccc2S(C)(=O)=O)nc(-c2ccccn2)n1 | < 4.40 | 1.5 |  |

| Structure (SMILES) | pIC50 [6] | logD [11] | other results |
| --- | --- | --- | --- |
| Cc1cc(COc2ccc(F)c(F)c2)nc(-c2ccccn2)n1 | 6.30 | 3.2 |  |
| Cc1cc(COc2ccc(F)cc2F)nc(-c2ccccn2)n1 | 6.40 | 3.1 |  |
| CC1(CS(C)(=O)=O)CN(c2cc(COc3ccc(F)c(F)c3F)nc(-c3ccccn3)n2)C1 | 5.20 | 2.9 |  |
| Cc1cc(COc2cccc(F)c2F)nc(-c2ccccn2)n1 | 6.40 | 3.2 |  |
| Fc1ccc(OCc2cc(OCC3(F)COC3)nc(-c3ccccn3)n2)c(F)c1F |  | 4 | CL free [1]: 1100 mL/min/kg; solubility [2]: 2.9 µM (≈ 1.22 µg/mL); clearance [3]: 19 mL/min/kg; fraction unbound [4]: 0.017; Vd [5]: 1.4 L/kg; fraction unbound [7]: 0.015; Fa [8]: 16%; CLint [9]: 72 µL/min/1e6 cells; bioavailability [10]: 12%; pIC50 [12]: 7.50; CLint [13]: 56 µL/min/mg |
| CCNc1cc(COc2cccc(F)c2)nc(-c2ccccn2)n1 | 6.20 | 3.9 |  |
| Fc1ccc(OCc2cc(N3CC4(CCO4)C3)nc(-c3ccccn3)n2)c(F)c1F | 6.30 | 3.3 |  |
| Cc1cc(COc2cccc(C#N)c2)nc(-c2ccccn2)n1 | 5.60 | 2.7 |  |
| Cc1cc(COc2cc(F)c(F)cc2F)nc(-c2ccccn2)n1 | 6.40 | 3.2 |  |
| c1ccc(OCc2cc(N3CCOCC3)nc(-c3ccccn3)n2)cc1 | 6.20 | 2.8 |  |
| CC(=O)Nc1ccccc1OCc1cc(C)nc(-c2ccccn2)n1 | < 4.40 | 1.6 |  |
| Fc1ccc(OCc2cc(OCC3COC3)nc(-c3ccccn3)n2)c(F)c1F | 6.50 | 3.7 |  |
| Cc1cc(COc2ccccc2F)nc(-c2ccccn2)n1 | 6.40 | 2.9 |  |
| COc1cccc(OCc2cc(C)nc(-c3ccccn3)n2)c1 | 5.70 | 2.9 |  |
| Cc1cc(COc2cc(F)cc(F)c2F)nc(-c2ccccn2)n1 | 6.30 | 3.4 |  |
| CC1(C#N)CN(c2cc(COc3ccc(F)c(F)c3F)nc(-c3ccccn3)n2)C1 | 6.80 | 3.3 | inhibition in vivo at 80 mg/kg [14]: 70%; CL free [1]: 540 mL/min/kg; Activity [15]: Non-toxic; solubility [2]: 2.9 µM (≈ 1.19 µg/mL); clearance [3]: 30 mL/min/kg; fraction unbound [4]: 0.056; Vd [5]: 3 L/kg; inhibition [16]: Active; fraction unbound [7]: 0.048; Fa [8]: 56%; Activity [17]: Non-toxic; inhibition [18]: inactive; CLint [9]: 26 µL/min/1e6 cells; bioavailability [10]: 32%; pIC50 [12]: 7.20; CLint [13]: 52 µL/min/mg |
| CC(=O)Nc1cccc(OCc2cc(C)nc(-c3ccccn3)n2)c1 | < 4.40 | 2.1 |  |
| Cc1cc(COc2ccc(C#N)cc2)nc(-c2ccccn2)n1 | 4.50 | 2.6 |  |
| N#CCC1(COc2cc(COc3ccc(F)c(F)c3F)nc(-c3ccccn3)n2)COC1 | 6.40 | 3.3 |  |
| CC1(C)CN(c2cc(COc3ccc(F)c(F)c3F)nc(-c3ccccn3)n2)C1 | 7.60 | 4.3 |  |
| Cc1cc(COc2ccc(F)cc2)nc(-c2ccccn2)n1 | 6.20 | 3 |  |
| CN(C)c1cc(COc2cccc(F)c2)nc(-c2ccccn2)n1 | 5.80 | 3.6 |  |
| CCOc1cc(COc2cccc(F)c2)nc(-c2ccccn2)n1 | 6.60 | 4.1 |  |
